In patent US20250011300A1, “PIPERAZINYLSULFONYLARYL COMPOUNDS FOR TREATMENT OF BACTERIAL INFECTIONS” (Hoffmann-La Roche Inc., priority 2021, published 2025):
≈ marks a conversion by molar mass, not a printed value.

Key:
[1] = biological target: Escherichia coli LpxH (UDP-2,3-diacylglucosamine hydrolase) (Escherichia coli (strain K12), UniProt P43341); assay: 50% Inhibitory Concentration (IC50) to LpxH, UMP/CMP-Glo Glycosyltransferase Assay kit; format: biochemical
Outline: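 LpxH hydrolysis of UDP-2,3-diacylglucosamine to lipid X and UMP; UMP produced is converted to ATP and quantified by luciferase luminescence (UMP/CMP-Glo). Inhibition taken from reduced light output.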

[2] = test system: K. pneumonia (ATCC 43816); assay: Minimal Inhibitory Concentration (MIC) assay, K. pneumonia; format: cell-based; conditions: Klebsiella pneumoniae; K. pneumoniae ATCC43816, CAMHB, 20 hours at 35° C.; read-out: MIC K. pneumoniae ATCC43816
Outline: (§1)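 Broth microdilution in cation-adjusted Mueller Hinton broth, inoculum 5×10^5 CFU/mL, compounds 2-fold serially diluted from 10 mM DMSO stocks. Plates incubated 20 hours at 35° C in ambient air; MIC (μg/mL) is the lowest concentration preventing visible growth.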

E. coli (ATCC 25922) = assay: Minimal Inhibitory Concentration (MIC) assay, E. coli; format: cell-based; conditions: Escherichia coli, ATCC25922; E. coli ATCC 25922, CAMHB, 20 hours at 35° C.; read-out: MIC E. coli ATCC 25922
Outline: as §1

Chain of Escherichia coli LpxH (UDP-2,3-diacylglucosamine hydrolase) (P43341 whole entry): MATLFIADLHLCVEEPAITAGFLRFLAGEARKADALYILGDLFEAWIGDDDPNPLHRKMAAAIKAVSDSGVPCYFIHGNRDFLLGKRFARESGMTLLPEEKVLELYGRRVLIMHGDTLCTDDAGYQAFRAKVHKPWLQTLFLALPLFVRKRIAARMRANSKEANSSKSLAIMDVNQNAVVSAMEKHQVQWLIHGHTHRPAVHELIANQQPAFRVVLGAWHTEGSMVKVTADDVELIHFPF

Row | SMILES | IC50 [1] | MIC [2] | MIC (E. coli (ATCC 25922))
1 | O=C1O[C@H]2CCNC[C@H]2N1c1ccc(S(=O)(=O)N2CCN(c3cc(C(F)(F)F)cc(Cl)n3)CC2)cc1 [Example 16, (3aR,7aS)-3-[4-[4-[6-chloro-4-(trifluoromethyl)-2-pyridyl]piperazin-1-yl]sulfonylphenyl]-3a,4,5,6,7,7a-hexahydrooxazolo[4,5-c]pyridin-2-one] | 38.5 nM | 1.03 µg/mL (≈ 1.89 µM) | 1.03 µg/mL (≈ 1.89 µM)
2 | O=C1CC(NC2CCNCC2)CN1c1ccc(S(=O)(=O)N2CCN(c3cc(C(F)(F)F)cc(Cl)n3)CC2)cc1 (stereo not drawn) [Example 60, 1-[4-[4-[6-Chloro-4-(trifluoromethyl)-2-pyridyl]piperazin-1-yl]sulfonylphenyl]-4-(4-piperidylamino)pyrrolidin-2-one] | 8.52 nM | 3.9 µg/mL (≈ 6.64 µM) | 1.95 µg/mL (≈ 3.32 µM)
3 | NC1CC(=O)N(c2ccc(S(=O)(=O)N3CCN(c4cc(Oc5ccccc5)cc(Cl)n4)CC3)cc2)C1 (stereo not drawn) [Example 72, 4-Amino-1-[4-[4-(6-chloro-4-phenoxy-2-pyridyl)piperazin-1-yl]sulfonylphenyl]pyrrolidin-2-one] | 407 nM | 7.06 µg/mL (≈ 13.4 µM) | 7.06 µg/mL (≈ 13.4 µM)
4 | NC1CC(=O)N(c2ccc(S(=O)(=O)N3CCN(c4cc(S(=O)(=O)C5CCOCC5)cc(Cl)n4)CC3)cc2)C1 (stereo not drawn) [Example 70, 4-Amino-1-[4-[4-(6-chloro-4-tetrahydropyran-4-ylsulfonyl-2-pyridyl)piperazin-1-yl]sulfonylphenyl]pyrrolidin-2-one] | 47.9 nM | 15.5 µg/mL (≈ 26.6 µM) | 15.5 µg/mL (≈ 26.6 µM)
5 | N[C@@H]1CC(=O)N(c2ccc(S(=O)(=O)N3CCN(c4cc(C(F)(F)[C@@H]5COCCO5)cc(Cl)n4)CC3)cc2)C1 [Example 102, (4R)-4-amino-1-[4-[4-[6-chloro-4-[[(2S)-1,4-dioxan-2-yl]-difluoro-methyl]-2-pyridyl]piperazin-1-yl]sulfonylphenyl]pyrrolidin-2-one] | 10.5 nM | 0.89 µg/mL (≈ 1.56 µM) | 0.89 µg/mL (≈ 1.56 µM)
6 | NC1CC(=O)N(c2ccc(S(=O)(=O)N3CCN(c4cc(C(F)(F)c5ccccc5)nc(C5CC5)n4)CC3)cc2)C1 (stereo not drawn) [Example 79, 4-Amino-1-[4-[4-[2-cyclopropyl-6-[difluoro(phenyl)methyl]pyrimidin-4-yl]piperazin-1-yl]sulfonylphenyl]pyrrolidin-2-one] | 179 nM | > 28.4 µg/mL | 14.2 µg/mL (≈ 25 µM)
7 | CNCC1CN(c2ccc(S(=O)(=O)N3CCN(c4cc(C(F)(F)F)cc(Cl)n4)CC3)cc2)C(=O)O1 (stereo not drawn) [Example 27, 3-[4-[4-[6-Chloro-4-(trifluoromethyl)-2-pyridyl]piperazin-1-yl]sulfonylphenyl]-5-(methylaminomethyl)oxazolidin-2-one] | 22.5 nM | 3.57 µg/mL (≈ 6.69 µM) | 1.78 µg/mL (≈ 3.33 µM)
8 | CNC1CN(CC2CC(=O)N(c3ccc(S(=O)(=O)N4CCN(c5cc(C(F)(F)F)cc(Cl)n5)CC4)cc3)C2)C1 (stereo not drawn) [Example 43, 1-[4-[4-[6-Chloro-4-(trifluoromethyl)-2-pyridyl]piperazin-1-yl]sulfonylphenyl]-4-[[3-(methylamino)azetidin-1-yl]methyl]pyrrolidin-2-one] | 15.3 nM | 5.09 µg/mL (≈ 8.67 µM) | 3.82 µg/mL (≈ 6.51 µM)
9 | NCC1CN(C2CC(=O)N(c3ccc(S(=O)(=O)N4CCN(c5cc(C(F)(F)F)cc(Cl)n5)CC4)cc3)C2)C1 (stereo not drawn) [Example 49, 4-[3-(Aminomethyl)azetidin-1-yl]-1-[4-[4-[6-chloro-4-(trifluoromethyl)-2-pyridyl]piperazin-1-yl]sulfonylphenyl]pyrrolidin-2-one] | 82 nM | 7.74 µg/mL (≈ 13.5 µM) | 3.87 µg/mL (≈ 6.75 µM)
10 | O=C1CC(NCCO)CN1c1ccc(S(=O)(=O)N2CCN(c3cc(C(F)(F)F)cc(Cl)n3)CC2)cc1 (stereo not drawn) [Example 46, 1-[4-[4-[6-Chloro-4-(trifluoromethyl)-2-pyridyl]piperazin-1-yl]sulfonylphenyl]-4-(2-hydroxyethylamino)pyrrolidin-2-one] | 9.12 nM | 3.65 µg/mL (≈ 6.66 µM) | 1.83 µg/mL (≈ 3.34 µM)
